Assay results reported in patent US20100036088A1, “Selective poly-N-substituted glycine antibiotics” (priority 2008, published 2010).
Where two headings read alike, the source gives them in different places. Square brackets hold non-standard residues; d marks the D form. Peptide text beside a SMILES is read from it. Nspe = C[C@H](NCC(=O)O)c1ccccc1; NDecylGly = CCCCCCCCCCNCC(=O)O; NPentylGly = CCCCCNCC(=O)O; Nlys = NCCCCNCC(=O)O

Columns and labels:
human erythrocytes = assay: Hemolysis assay; type: cell-based
Method in brief: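 Peptoid serial dilutions in PBS pH 7.4 were combined with an equal volume of 20 vol % washed human red cells (heparinised blood) for 1 h at 37 °C. After dilution and pelleting at 1200 g, released haemoglobin in supernatant was read at A350, scaled between PBS and 0.2 vol % Triton X-100 controls.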

B. subtilis = type: cell-based
Experimental: (§1) Antibacterial assays. MICs were determined according to CLSI M7-A6 protocols in a 96-well microtiter plate. In test wells, 50 μL bacterial inoculum (5×10^5 CFU/ml) in Mueller-Hinton broth (MHB) was added to 50 μL peptoid solution in MHB (prepared by 1:2 serial dilutions). Positive controls contained 50 μL inoculum and 50 μL MHB without peptoid. […] MIC values reported were reproducible between three independent experimental replicates, each consisting of two parallel trials. Broad-spectrum antimicrobial susceptibility testing was performed against BSL2 pathogens by Nova Biologicals, Inc. (Conroe, Tex.).
(§2) Screening antibacterial assays. MICs were determined in 96-well microtiter plates in accordance with CLSI M7-A6 protocols. Peptoid solutions with 50 μL total volume were prepared using 2:1 serial dilutions. 50 μL of bacteria inoculum (1×10^6 CFU/mL) prepared in cation-adjusted Mueller-Hinton broth (CAMHB) was added to test wells. Control wells contained 100 μL MHB (no growth) or 50 μL inoculums with 50 μL MHB with no peptoid. […] Reported values were reproducible over three experiments, each containing two parallel trials.

E. coli = type: cell-based
Experimental: as §1, §2

[1] = test system: Candida albicans (SC5314); type: cell-based, C. albicans
Experimental: Additionally, in order to characterize possible antifungal activity, a library of alkylated compounds was tested against C. albicans, a representative fungal strain.
Antifungal Assays. MICs were determined using the broth microdilution assay given by CLSI M27-A2 protocols. Candida albicans (SC5314) was grown on Sabouraud dextrose agar for 24 hours at 30° C. Cells were suspended in 0.145 M saline, and the cell concentration was adjusted to 3×10^6 cells/mL. After adjusting the cell concentration, the suspension was diluted 1:1000 with RPMI 1640 (with L-glutamine and without sodium bicarbonate, Invitrogen) buffered with 0.145 M 3-(N-morpholino) propanesulfonic acid (MOPS). Two-fold serial dilutions of peptoids, peptides, and amphotericin B (Calbiochem) were prepared in RPMI 1640 and mixed with an equal volume of the cell suspension in 96-well plates. The final testing concentrations for the peptoids and peptides were 0.20 to 100 μM, and concentrations for amphotericin B were 0.031 to 16 μM. Growth controls and sterility controls were also included. Plates were incubated for 48 hours at 35° C., and growth of C. albicans was inspected visually to determine the MICs. The MIC for each compound was defined as the lowest concentration with no visible fungal growth. Experiments were performed in duplicate on two separate days.

Row | SMILES | HD10 (human erythrocytes) | HD50 (human erythrocytes) | HD10 (10% hemolytic dose) (human erythrocytes; red cells of human, 1 h) | HD50 (50% hemolytic dose) (human erythrocytes; red cells of human, 1 h) | B. subtilis MIC (B. subtilis) [µM] | E. coli MIC (E. coli) [µM] | C. albicans MIC ([1]; SC5314, 48 h) [µM] | C. albicans MIC ([1]; SC5314) [µM]
1 | C[C@@H](c1ccccc1)N(CC(N)=O)C(=O)CN(C(=O)CN(CCCCN)C(=O)CN(C(=O)CN(C(=O)CN(CCCCN)C(=O)CN(C(=O)CN(C(=O)CNCCCCN)[C@@H](C)c1ccccc1)[C@@H](C)c1ccccc1)[C@@H](C)c1ccccc1)[C@@H](C)c1ccccc1)[C@@H](C)c1ccccc1 [19 mer, H-(Nlys-Nspe-Nspe)3-NH2] (H-[Nlys][Nspe][Nspe][Nlys][Nspe][Nspe][Nlys][Nspe][Nspe]-NH2) | 150 µM | > 200 µM | >150/>150 μM | >150/>150 μM | 1.6 | 25 | 15.6 | 
2 | CCCCCNCC(=O)N(CCCCN)CC(=O)N(CC(=O)N(CC(=O)N(CCCCN)CC(=O)N(CC(=O)N(CC(=O)N(CCCCN)CC(=O)N(CC(=O)N(CC(=O)N(CCCCN)CC(=O)N(CC(=O)N(CC(N)=O)[C@@H](C)c1ccccc1)[C@@H](C)c1ccccc1)[C@@H](C)c1ccccc1)[C@@H](C)c1ccccc1)[C@@H](C)c1ccccc1)[C@@H](C)c1ccccc1)[C@@H](C)c1ccccc1)[C@@H](C)c1ccccc1 [C5-1] (H-[NPentylGly][Nlys][Nspe][Nspe][Nlys][Nspe][Nspe][Nlys][Nspe][Nspe][Nlys][Nspe][Nspe]-NH2) | 10 µM | 40 µM |  |  | 1.6 | 6.3 |  | 6.3
3 | CCCCCNCC(=O)N(CCCCN)CC(=O)N(CC(=O)N(CC(=O)N(CCCCN)CC(=O)N(CC(=O)N(CC(N)=O)[C@@H](C)c1ccccc1)[C@@H](C)c1ccccc1)[C@@H](C)c1ccccc1)[C@@H](C)c1ccccc1 [C5-16 mer] (H-[NPentylGly][Nlys][Nspe][Nspe][Nlys][Nspe][Nspe]-NH2) | >200/>200 μM | >200/>200 μM |  |  | 3.1 | >200 |  | 100
4 | CCCCCNCC(=O)N(CCCCN)CC(=O)N(CC(=O)N(CC(=O)N(CCCCN)CC(=O)N(CC(=O)N(CC(=O)N(CCCCN)CC(=O)N(CC(=O)N(CC(N)=O)[C@@H](C)c1ccccc1)[C@@H](C)c1ccccc1)[C@@H](C)c1ccccc1)[C@@H](C)c1ccccc1)[C@@H](C)c1ccccc1)[C@@H](C)c1ccccc1 [C5-19 mer] (H-[NPentylGly][Nlys][Nspe][Nspe][Nlys][Nspe][Nspe][Nlys][Nspe][Nspe]-NH2) | 65 µM | > 200 µM |  |  | 1.0 | 16.3 |  | 12.5
5 | CCCCCCCCCCNCC(=O)N(CCCCN)CC(=O)N(CC(=O)N(CC(=O)N(CCCCN)CC(=O)N(CC(=O)N(CC(=O)N(CCCCN)CC(=O)N(CC(=O)N(CC(=O)N(CCCCN)CC(=O)N(CC(=O)N(CC(N)=O)[C@@H](C)c1ccccc1)[C@@H](C)c1ccccc1)[C@@H](C)c1ccccc1)[C@@H](C)c1ccccc1)[C@@H](C)c1ccccc1)[C@@H](C)c1ccccc1)[C@@H](C)c1ccccc1)[C@@H](C)c1ccccc1 [C10-1] (H-[NDecylGly][Nlys][Nspe][Nspe][Nlys][Nspe][Nspe][Nlys][Nspe][Nspe][Nlys][Nspe][Nspe]-NH2) | 8 µM | 27 µM |  |  | 1.6 | 12.5 |  | 1.6
6 | CCCCCCCCCCNCC(=O)N(CCCCN)CC(=O)N(CC(=O)N(CC(=O)N(CCCCN)CC(N)=O)[C@@H](C)c1ccccc1)[C@@H](C)c1ccccc1 [C10-14 mer] (H-[NDecylGly][Nlys][Nspe][Nspe][Nlys]-NH2) | >200/>200 μM | >200/>200 μM |  |  | 6.3 | >100 |  | 100
7 | CCCCCCCCCCNCC(=O)N(CCCCN)CC(=O)N(CC(=O)N(CC(=O)N(CCCCN)CC(=O)N(CC(=O)N(CC(N)=O)[C@@H](C)c1ccccc1)[C@@H](C)c1ccccc1)[C@@H](C)c1ccccc1)[C@@H](C)c1ccccc1 [C10-16 mer] (H-[NDecylGly][Nlys][Nspe][Nspe][Nlys][Nspe][Nspe]-NH2) | 30 µM | 80 µM |  |  | 1.6 | 6.3 |  | 6.25
8 | CCCCCCCCCCNCC(=O)N(CCCCN)CC(=O)N(CC(=O)N(CC(=O)N(CCCCN)CC(=O)N(CC(=O)N(CC(=O)N(CCCCN)CC(=O)N(CC(=O)N(CC(N)=O)[C@@H](C)c1ccccc1)[C@@H](C)c1ccccc1)[C@@H](C)c1ccccc1)[C@@H](C)c1ccccc1)[C@@H](C)c1ccccc1)[C@@H](C)c1ccccc1 [C10-19 mer] (H-[NDecylGly][Nlys][Nspe][Nspe][Nlys][Nspe][Nspe][Nlys][Nspe][Nspe]-NH2) | 12 µM | 40 µM |  |  | 3.1 | 6.3 |  | 3.1
